MIC data for nine molecules are collected here from DBAASP.

In brackets after ≈: the same amount, converted by molar mass.

What all share (experiment): ≥ marks a high value that may be exact or a test limit, other limits are often not marked, values filed in µg/mL are converted to µM
Experiment [1] relates to Staphylococcus epidermidis.
Experiment [2] has as its system Candida albicans.
For experiment [3], the system named is Pseudomonas aeruginosa ATCC 15442.
In experiment [4] the test system is Escherichia coli CCT 1371.
The subject of experiment [5] is Staphylococcus aureus ATCC 6538.
Experiment [6] deals with Bacillus subtilis CCT 2471.
For experiment [7], the system named is Escherichia coli ATCC 25922.
The subject of experiment [8] is Staphylococcus aureus ATCC 25923.
Experiment [9] has as its system Staphylococcus saprophyticus.
Experiment [10] has as its system Pseudomonas aeruginosa PAO1.
Experiment [11] relates to Pseudomonas aeruginosa 253.
Experiment [12] has as its system Pseudomonas aeruginosa 910.
In experiment [13] the test system is Pseudomonas aeruginosa 919.
The subject of experiment [14] is Staphylococcus aureus ATCC 29231.
The test system of experiment [15] is Pseudomonas aeruginosa PA14.
Experiment [16] relates to Enterococcus faecium E007.
For experiment [17], the system named is Acinetobacter baumannii ATCC 7978.
Experiment [18] deals with Pseudomonas aeruginosa ATCC 27853.
The test system of experiment [19] is Enterococcus faecalis ATCC 29212.
Experiment [20] has as its system Enterobacter cloacae NHTCC 53001.
For experiment [21], the system named is Candida albicans ATCC 90028.
Experiment [22] relates to Staphylococcus aureus NCTC 8325.
Experiment [23] has as its system Proteus mirabilis ATCC 25933.
Experiment [24] relates to Staphylococcus epidermidis RP62A.
Experiment [25] relates to Klebsiella pneumoniae KK3 9904.
The subject of experiment [26] is Streptococcus sobrinus ATCC 6715.
The test system of experiment [27] is Streptococcus mutans UA159.
For experiment [28], the system named is Streptococcus sanguinis ATCC 10556.
Experiment [29] relates to Escherichia coli UB1005.
Experiment [30] deals with Pseudomonas aeruginosa H103.
The subject of experiment [31] is Salmonella enterica serovar Typhimurium.
For experiment [32], the system named is Candida albicans ATCC 10231.

With `CC[C@H](C)[C@H](NC(=O)CNC(=O)[C@H](CCCCN)NC(=O)[C@H](C)NC(=O)[C@@H](NC(=O)[C@H](CCCCN)NC(=O)[C@@H](N)CC(C)C)[C@@H](C)CC)C(=O)N[C@H](C(=O)N[C@@H](CCCCN)C(=O)N[C@@H](CO)C(=O)N[C@@H](CC(C)C)C(=O)O)[C@@H](C)CC` [LKIAKGIIKSL], the MIC in experiment [1] was at least 84.5 µM; in experiment [2], above 84.5 µM; in [3], at least 84.5 µM; in experiment [4], at least 84.5 µM; in [5], above 84.5 µM; in [6], at least 84.5 µM. Also, the minimal inhibitory concentration (MIC) in experiment [7] is above 84.5 µM; in [8] it was above 84.5 µM; in [9], at least 84.5 µM.

As to `CC[C@H](C)[C@H](N)C(=O)N[C@@H](CC(C)C)C(=O)N[C@@H](CCCCN)C(=O)N[C@@H](Cc1c[nH]c2ccccc12)C(=O)N[C@@H](CCCCN)C(=O)N[C@H](C(=O)N[C@@H](CCCCN)C(=O)N[C@@H](Cc1c[nH]c2ccccc12)C(=O)N[C@@H](Cc1c[nH]c2ccccc12)C(=O)N[C@@H](CCCCN)C(=O)N[C@@H](Cc1c[nH]c2ccccc12)C(=O)N[C@@H](Cc1ccccc1)C(=O)N[C@@H](CCCN=C(N)N)C(N)=O)[C@@H](C)O` [ILKWKTKWWKWFR], the minimal inhibitory concentration (MIC) in [10] was found to be 2 µM (≈ 3.81 µg/mL); in [11], 4 µM (≈ 7.62 µg/mL); in experiment [12], 4 µM (≈ 7.62 µg/mL); in experiment [13], 16 µM (≈ 30.5 µg/mL).

Consider `CC[C@H](C)[C@H](NC(=O)[C@H](CCCCN)NC(=O)[C@H](CCCCN)NC(=O)[C@@H](N)CC(C)C)C(=O)NCC(=O)N[C@@H](CCCCN)C(=O)N[C@@H](CCCCN)C(=O)N[C@H](C(=O)N[C@@H](Cc1c[nH]c2ccccc12)C(=O)N[C@@H](CCCN=C(N)N)C(=O)N[C@H](C(=O)NCC(=O)O)C(C)C)[C@@H](C)CC` [LKKIGKKIWRVG], for which the minimal inhibitory concentration (MIC) in [14], in experiment [15], in [16] and in experiment [17] was at least 89.8 µM each time.

On to `CC[C@H](C)[C@H](NC(=O)CN)C(=O)N[C@@H](CCCCN)C(=O)N[C@@H](CC(=O)O)C(=O)N[C@@H](Cc1c[nH]c2ccccc12)C(=O)N[C@H](C(=O)N[C@@H](CCCCN)C(=O)NCC(=O)N[C@@H](C)C(=O)N[C@@H](C)C(=O)N[C@@H](CCCCN)C(=O)N[C@@H](CCCCN)C(=O)N[C@@H](CC(C)C)C(=O)N[C@H](C(=O)N[C@@H](CCCCN)C(=O)N[C@H](C(=O)N[C@H](C(=O)N[C@@H](C)C(=O)N[C@@H](CO)C(=O)N[C@@H](Cc1cnc[nH]1)C(=O)N[C@H](C(=O)N[C@@H](C)C(=O)N[C@@H](CC(N)=O)C(=O)N[C@@H](CCC(N)=O)C(=O)O)[C@@H](C)CC)C(C)C)[C@@H](C)O)[C@@H](C)CC)[C@@H](C)CC` [GIKDWIKGAAKKLIKTVASHIANQ], for which the minimal inhibitory concentration (MIC) in [18] was 13 µM (≈ 33.7 µg/mL); in experiment [19], above 100 µM; in [20] it was 6 µM (≈ 15.5 µg/mL); in [21], at least 100 µM; in experiment [22], at least 50 µM; in experiment [23] it was at least 100 µM. In addition, the values for the minimum inhibitory concentration (MIC) in [7], in experiment [24] and in experiment [25] were 6 µM (≈ 15.5 µg/mL), 13 µM (≈ 33.7 µg/mL) and 13 µM (≈ 33.7 µg/mL), respectively.

Consider `CC(C)C[C@H](NC(=O)[C@H](C)NC(=O)[C@H](CCCCN)NC(=O)[C@H](C)NC(=O)[C@H](C)NC(=O)CNC(=O)[C@H](CCCCN)NC(=O)[C@H](CC(C)C)NC(=O)[C@H](CC(C)C)NC(=O)[C@H](CC(=O)O)NC(=O)[C@H](CCCCN)NC(=O)[C@H](Cc1ccccc1)NC(=O)CN)C(=O)N[C@H](C(=O)N[C@@H](CCCCN)C(=O)N[C@H](C(=O)N[C@H](C(=O)N[C@@H](CC(C)C)C(=O)N[C@@H](Cc1ccccc1)C(=O)O)C(C)C)[C@@H](C)O)C(C)C` [GFKDLLKGAAKALVKTVLF], for which the minimal inhibitory concentration (MIC) in experiment [18] was 50 µM (≈ 101 µg/mL); in experiment [19] it was above 100 µM; in experiment [20], 13 µM (≈ 26.3 µg/mL); in experiment [21], at least 100 µM; in [22], at least 50 µM; in experiment [23] it was at least 100 µM. Further, the figures for the minimal inhibitory concentration (MIC) in experiment [7], in experiment [24] and in experiment [25] were 6 µM (≈ 12.1 µg/mL), 25 µM (≈ 50.5 µg/mL) and 25 µM (≈ 50.5 µg/mL), respectively.

Consider `NCCCC[C@H](NC(=O)[C@H](CCCCN)NC(=O)[C@H](Cc1ccccc1)NC(=O)[C@H](Cc1ccccc1)NC(=O)[C@H](CCCCN)NC(=O)[C@H](CCCCN)NC(=O)[C@H](Cc1ccccc1)NC(=O)[C@H](Cc1ccccc1)NC(=O)[C@H](CCCCN)NC(=O)[C@@H](N)Cc1ccccc1)C(=O)N[C@@H](Cc1c[nH]c2ccccc12)C(=O)O` [FKFFKKFFKKW], for which the minimum inhibitory concentration (MIC) in [26] turned out to be 10.1 µM (≈ 16 µg/mL); in [27], 10.1 µM (≈ 16 µg/mL); in experiment [28], 20.2 µM (≈ 32 µg/mL).

With `CC[C@H](C)[C@H](NC(=O)[C@@H](N)Cc1ccccc1)C(=O)N[C@@H](CCCCN)C(=O)N[C@@H](Cc1c[nH]c2ccccc12)C(=O)N[C@@H](CCCN=C(N)N)C(=O)N[C@@H](Cc1ccccc1)C(=O)N[C@@H](CCCN=C(N)N)C(=O)N[C@@H](CCCN=C(N)N)C(=O)N[C@@H](Cc1c[nH]c2ccccc12)C(=O)N[C@@H](CCCCN)C(=O)N[C@@H](CCCCN)C(=O)N[C@@H](CCCN=C(N)N)C(=O)N[C@H](C(N)=O)[C@@H](C)O` [FIKWRFRRWKKRT], the minimum inhibitory concentration (MIC) in experiment [10] is 4 µM (≈ 7.63 µg/mL); in experiment [11], 16 µM (≈ 30.5 µg/mL); in [12], 8 µM (≈ 15.3 µg/mL); in experiment [13], at least 32 µM.

In the case of `CC[C@H](C)[C@H](NC(=O)[C@H](CCCN=C(N)N)NC(=O)[C@H](Cc1c[nH]c2ccccc12)NC(=O)[C@H](CCCN=C(N)N)NC(=O)[C@@H](N)C(C)C)C(=O)N[C@@H](CCCN=C(N)N)C(=O)N[C@H](C(=O)N[C@@H](C)C(=O)N[C@H](C(=O)N[C@H](C(=O)N[C@@H](CCCN=C(N)N)C(=O)N[C@@H](C)C(=O)O)[C@@H](C)CC)C(C)C)C(C)C` [VRWRIRVAVIRA], the MIC in experiment [29] turned out to be 1.07 µM (≈ 1.6 µg/mL); in [10], 8 µM (≈ 12 µg/mL); in experiment [11], 16 µM (≈ 23.9 µg/mL); in experiment [1], 1.07 µM (≈ 1.6 µg/mL); in [2] it was 8.03 µM (≈ 12 µg/mL); in experiment [30], 4.01 µM (≈ 6 µg/mL). Also, the minimal inhibitory concentration (MIC) in [12] came out at 16 µM (≈ 23.9 µg/mL); in experiment [31], 4.01 µM (≈ 6 µg/mL); in experiment [8] it was 8.03 µM (≈ 12 µg/mL); in [13], 8 µM (≈ 12 µg/mL).

Turning to `CC[C@H](C)[C@H](NC(=O)[C@H](CCCCN)NC(=O)[C@H](CCCCN)NC(=O)[C@H](Cc1c[nH]c2ccccc12)NC(=O)[C@@H](NC(=O)[C@H](CCCCN)NC(=O)[C@H](Cc1c[nH]c2ccccc12)NC(=O)[C@@H](N)CC(C)C)[C@@H](C)CC)C(=O)N[C@@H](Cc1c[nH]c2ccccc12)C(=O)N[C@@H](CCCN=C(N)N)C(=O)N[C@H](C(=O)N[C@@H](Cc1c[nH]c2ccccc12)C(=O)N[C@@H](Cc1c[nH]c2ccccc12)C(=O)N[C@@H](CC(N)=O)C(=O)N[C@@H](Cc1c[nH]c2ccccc12)C(=O)N[C@@H](CCCN=C(N)N)C(=O)O)C(C)C` [LWKIWKKIWRVWWNWR], the MIC in experiment [14] was 13.1 µM (≈ 31.3 µg/mL); in experiment [32], 53.7 µM (≈ 128 µg/mL); in experiment [15], 26.8 µM (≈ 64 µg/mL); in experiment [16], at least 53.7 µM.
